Experiments:
Assay in all cases: biochemical
Design in all cases: DiscoverX kinase panel, active-site competition binding (KINOMEscan type), percent of control at one concentration
Conditions in all cases: competition binding, percent of control
EIF2AK1 = EIF2AK1 (Homo sapiens, UniProt Q9BQI3)
PCTK1 = target: T1, PCTK1 (Homo sapiens, UniProt Q00536)
T1 construct: gene CDK16

KIT(V559D,V654A) = KIT(V559D,V654A) (Homo sapiens, UniProt P10721, V559D/V654A)
ROCK1 = ROCK1 (Homo sapiens, UniProt Q13464)
MRCKA = target: T2, MRCKA (Homo sapiens, UniProt Q5VT25)
T2 construct: gene CDC42BPA

EGFR(L747-T751del,Sins) = EGFR(L747-T751del,Sins) (Homo sapiens, UniProt P00533, DEL747-750/T751S)
PKAC-alpha = target: T3, PKAC-alpha (Homo sapiens, UniProt P17612)
T3 construct: gene PRKACA

PFTK1 = target: T4, PFTK1 (Homo sapiens, UniProt O94921)
T4 construct: gene CDK14
T4 sequence (O94921 whole entry): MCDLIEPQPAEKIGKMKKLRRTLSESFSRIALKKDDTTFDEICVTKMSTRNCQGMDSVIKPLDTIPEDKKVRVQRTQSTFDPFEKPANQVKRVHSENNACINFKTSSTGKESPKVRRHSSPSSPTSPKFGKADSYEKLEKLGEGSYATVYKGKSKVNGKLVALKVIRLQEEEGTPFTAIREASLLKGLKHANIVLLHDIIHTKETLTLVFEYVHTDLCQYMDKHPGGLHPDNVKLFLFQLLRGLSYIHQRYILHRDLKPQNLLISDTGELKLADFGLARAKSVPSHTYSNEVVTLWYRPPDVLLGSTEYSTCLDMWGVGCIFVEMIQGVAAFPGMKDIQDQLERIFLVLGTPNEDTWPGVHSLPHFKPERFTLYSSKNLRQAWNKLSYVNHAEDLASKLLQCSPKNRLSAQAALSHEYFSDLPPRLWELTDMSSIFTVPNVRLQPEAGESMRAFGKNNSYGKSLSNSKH

SRPK2 = SRPK2 (Homo sapiens, UniProt P78362)
EGFR = EGFR (Homo sapiens, UniProt P00533)
CDK5 = CDK5 (Homo sapiens, UniProt Q00535)
Chain of CDK5 (Q00535 whole entry): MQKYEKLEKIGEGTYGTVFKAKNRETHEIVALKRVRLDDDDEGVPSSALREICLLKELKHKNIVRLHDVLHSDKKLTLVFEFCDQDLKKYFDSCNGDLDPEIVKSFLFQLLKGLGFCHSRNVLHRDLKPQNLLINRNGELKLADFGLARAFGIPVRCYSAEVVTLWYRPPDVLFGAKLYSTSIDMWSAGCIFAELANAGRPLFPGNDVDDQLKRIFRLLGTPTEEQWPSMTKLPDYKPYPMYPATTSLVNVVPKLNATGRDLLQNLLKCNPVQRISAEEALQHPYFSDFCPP

[1] = target: T5, JAK2(JH1domain-catalytic) (Homo sapiens, UniProt O60674)
T5 construct: JH1domain-catalytic

IKK-epsilon = target: T6, IKK-epsilon (Homo sapiens, UniProt Q14164)
T6 construct: gene IKBKE
T6 sequence (Q14164 whole entry): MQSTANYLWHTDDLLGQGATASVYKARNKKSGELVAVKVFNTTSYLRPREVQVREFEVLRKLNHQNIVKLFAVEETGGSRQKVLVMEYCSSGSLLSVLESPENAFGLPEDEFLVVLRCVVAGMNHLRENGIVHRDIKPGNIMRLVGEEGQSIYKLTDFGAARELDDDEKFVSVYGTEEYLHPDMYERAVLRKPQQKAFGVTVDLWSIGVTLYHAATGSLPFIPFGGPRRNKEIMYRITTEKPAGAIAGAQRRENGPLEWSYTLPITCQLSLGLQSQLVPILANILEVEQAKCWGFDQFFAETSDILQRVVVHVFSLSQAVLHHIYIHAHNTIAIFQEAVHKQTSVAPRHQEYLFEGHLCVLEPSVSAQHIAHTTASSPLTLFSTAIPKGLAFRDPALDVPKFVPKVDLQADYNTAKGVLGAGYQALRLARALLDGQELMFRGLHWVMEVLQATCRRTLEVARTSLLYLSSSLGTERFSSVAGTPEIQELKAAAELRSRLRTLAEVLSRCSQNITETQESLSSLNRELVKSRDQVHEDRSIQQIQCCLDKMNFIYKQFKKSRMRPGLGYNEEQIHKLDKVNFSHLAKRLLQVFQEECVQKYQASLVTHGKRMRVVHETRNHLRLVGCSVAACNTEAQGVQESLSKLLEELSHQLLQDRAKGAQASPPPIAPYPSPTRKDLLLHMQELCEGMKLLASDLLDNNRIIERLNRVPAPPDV

MAK = MAK (Homo sapiens, UniProt P20794)
Chain of MAK (P20794 whole entry): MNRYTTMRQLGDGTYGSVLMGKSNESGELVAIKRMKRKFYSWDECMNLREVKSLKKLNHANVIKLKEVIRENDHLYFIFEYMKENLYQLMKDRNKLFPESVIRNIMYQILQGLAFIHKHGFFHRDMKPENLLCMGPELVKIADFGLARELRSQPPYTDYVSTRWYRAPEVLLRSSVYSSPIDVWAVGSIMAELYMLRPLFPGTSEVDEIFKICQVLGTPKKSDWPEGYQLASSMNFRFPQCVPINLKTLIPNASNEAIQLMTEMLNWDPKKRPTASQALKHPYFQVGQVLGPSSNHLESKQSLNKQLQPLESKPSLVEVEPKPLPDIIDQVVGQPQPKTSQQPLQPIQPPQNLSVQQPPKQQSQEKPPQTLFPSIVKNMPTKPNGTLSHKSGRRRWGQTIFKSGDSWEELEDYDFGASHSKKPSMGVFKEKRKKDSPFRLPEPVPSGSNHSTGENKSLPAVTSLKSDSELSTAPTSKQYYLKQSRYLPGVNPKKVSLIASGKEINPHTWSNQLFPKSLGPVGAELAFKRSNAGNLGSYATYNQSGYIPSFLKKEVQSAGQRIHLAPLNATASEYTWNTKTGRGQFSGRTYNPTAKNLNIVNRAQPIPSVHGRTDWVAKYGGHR

PRKCE = PRKCE (Homo sapiens, UniProt Q02156)
Chain of PRKCE (Q02156 whole entry): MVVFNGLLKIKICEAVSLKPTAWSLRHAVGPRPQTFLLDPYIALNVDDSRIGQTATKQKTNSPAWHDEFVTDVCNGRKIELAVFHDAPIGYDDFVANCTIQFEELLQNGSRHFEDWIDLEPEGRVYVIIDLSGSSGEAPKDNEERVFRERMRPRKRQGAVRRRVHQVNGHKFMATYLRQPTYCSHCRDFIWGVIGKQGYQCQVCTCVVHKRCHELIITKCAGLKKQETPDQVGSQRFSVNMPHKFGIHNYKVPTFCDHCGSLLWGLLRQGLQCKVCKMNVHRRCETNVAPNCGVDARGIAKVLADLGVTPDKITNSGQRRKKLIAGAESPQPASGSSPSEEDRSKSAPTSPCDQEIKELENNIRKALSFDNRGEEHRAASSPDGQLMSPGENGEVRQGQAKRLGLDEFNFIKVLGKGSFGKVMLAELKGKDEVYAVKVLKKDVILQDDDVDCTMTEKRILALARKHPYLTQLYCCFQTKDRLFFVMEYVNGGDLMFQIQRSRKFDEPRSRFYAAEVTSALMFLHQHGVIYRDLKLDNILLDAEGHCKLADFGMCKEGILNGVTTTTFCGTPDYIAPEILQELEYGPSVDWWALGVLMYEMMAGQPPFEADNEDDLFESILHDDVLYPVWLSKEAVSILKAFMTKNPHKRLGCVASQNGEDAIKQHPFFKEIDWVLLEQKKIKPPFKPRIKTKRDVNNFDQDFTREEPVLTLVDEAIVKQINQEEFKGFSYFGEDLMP

SGK = target: T7, SGK (Homo sapiens, UniProt O00141)
T7 construct: gene SGK1

PIK3CA(E545K) = PIK3CA(E545K) (Homo sapiens, UniProt P42336, E545K)
MST1R = MST1R (Homo sapiens, UniProt Q04912)
TSSK1B = TSSK1B (Homo sapiens, UniProt Q9BXA7)
Chain of TSSK1B (Q9BXA7 whole entry): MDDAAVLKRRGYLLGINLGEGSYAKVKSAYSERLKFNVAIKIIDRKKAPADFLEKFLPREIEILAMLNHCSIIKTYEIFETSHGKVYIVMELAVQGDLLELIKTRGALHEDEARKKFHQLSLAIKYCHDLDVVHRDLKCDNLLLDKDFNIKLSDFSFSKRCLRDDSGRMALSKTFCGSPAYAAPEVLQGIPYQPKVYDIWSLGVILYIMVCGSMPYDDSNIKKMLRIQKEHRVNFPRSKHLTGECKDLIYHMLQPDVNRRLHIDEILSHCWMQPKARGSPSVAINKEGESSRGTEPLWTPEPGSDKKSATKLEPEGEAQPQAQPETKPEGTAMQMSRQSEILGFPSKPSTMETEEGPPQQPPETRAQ

JNK1 = target: T8, JNK1 (Homo sapiens, UniProt P45983)
T8 construct: gene MAPK8
T8 sequence (P45983 whole entry): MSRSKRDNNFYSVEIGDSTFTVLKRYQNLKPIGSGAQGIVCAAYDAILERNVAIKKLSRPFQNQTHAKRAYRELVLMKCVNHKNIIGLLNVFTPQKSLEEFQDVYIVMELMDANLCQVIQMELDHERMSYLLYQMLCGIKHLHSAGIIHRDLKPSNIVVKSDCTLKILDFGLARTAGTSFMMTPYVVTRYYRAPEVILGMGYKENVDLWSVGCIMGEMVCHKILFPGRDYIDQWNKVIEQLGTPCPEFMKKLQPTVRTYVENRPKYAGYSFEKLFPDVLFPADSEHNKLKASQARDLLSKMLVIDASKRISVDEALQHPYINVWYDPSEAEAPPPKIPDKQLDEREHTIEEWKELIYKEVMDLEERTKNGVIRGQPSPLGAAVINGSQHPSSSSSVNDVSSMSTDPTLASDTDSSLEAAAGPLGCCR

MAP3K3 = MAP3K3 (Homo sapiens, UniProt Q99759)

Chain of KIT(V559D,V654A) (P10721 whole entry V559D/V654A): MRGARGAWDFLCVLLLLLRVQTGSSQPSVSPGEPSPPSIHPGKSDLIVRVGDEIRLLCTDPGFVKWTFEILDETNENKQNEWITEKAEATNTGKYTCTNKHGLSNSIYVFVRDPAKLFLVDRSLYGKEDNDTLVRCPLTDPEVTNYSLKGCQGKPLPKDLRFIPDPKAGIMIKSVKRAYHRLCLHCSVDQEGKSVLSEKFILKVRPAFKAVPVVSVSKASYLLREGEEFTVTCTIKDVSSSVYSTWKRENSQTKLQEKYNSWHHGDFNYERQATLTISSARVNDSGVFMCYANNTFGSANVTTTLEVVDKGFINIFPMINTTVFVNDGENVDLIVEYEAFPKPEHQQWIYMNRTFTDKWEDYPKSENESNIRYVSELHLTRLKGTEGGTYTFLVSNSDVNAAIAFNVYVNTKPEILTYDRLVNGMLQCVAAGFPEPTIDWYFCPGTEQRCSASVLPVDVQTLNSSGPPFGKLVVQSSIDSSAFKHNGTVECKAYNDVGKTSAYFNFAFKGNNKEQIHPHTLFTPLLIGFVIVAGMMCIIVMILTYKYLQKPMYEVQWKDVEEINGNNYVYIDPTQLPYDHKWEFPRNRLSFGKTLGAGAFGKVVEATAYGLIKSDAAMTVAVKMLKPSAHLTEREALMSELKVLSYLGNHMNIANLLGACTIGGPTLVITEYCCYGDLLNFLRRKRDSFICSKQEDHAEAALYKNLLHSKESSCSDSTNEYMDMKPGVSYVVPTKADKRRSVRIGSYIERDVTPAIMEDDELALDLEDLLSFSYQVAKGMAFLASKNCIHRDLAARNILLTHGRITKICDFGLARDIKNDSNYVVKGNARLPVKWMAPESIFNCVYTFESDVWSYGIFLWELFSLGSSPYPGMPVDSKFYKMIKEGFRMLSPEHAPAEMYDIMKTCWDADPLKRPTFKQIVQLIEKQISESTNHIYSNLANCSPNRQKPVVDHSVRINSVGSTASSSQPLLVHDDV

## COc1cc2c(cn1)N(C)C(=O)[C@@H](NC(=O)c1nc3n(n1)[C@H](c1ccccc1)CC3)CC2 [GNE684, (S)-N-((S)-7-methoxy-1-methyl-2-oxo-2,3,4,5-tetrahydro-1H-pyrido[3,4-b]azepin-3-yl)-5-phenyl-6,7-dihydro-5H-pyrrolo[1,2-b][1,2,4]triazole-2-carboxamide]
EIF2AK1
  remaining binding at 10 µM: 100%
PCTK1
  remaining binding at 10 µM: 82%
KIT(V559D,V654A)
  remaining binding at 10 µM: 100%
ROCK1
  remaining binding at 10 µM: 100%
MRCKA
  remaining binding at 10 µM: 100%
EGFR(L747-T751del,Sins)
  remaining binding at 10 µM: 84%
PKAC-alpha
  remaining binding at 10 µM: 73%
PFTK1
  remaining binding at 10 µM: 79%
SRPK2
  remaining binding at 10 µM: 100%
EGFR
  remaining binding at 10 µM: 100%
CDK5
  remaining binding at 10 µM: 93%
[1]
  remaining binding at 10 µM: 100%
IKK-epsilon
  remaining binding at 10 µM: 88%
MAK
  remaining binding at 10 µM: 96%
PRKCE
  remaining binding at 10 µM: 88%
SGK
  remaining binding at 10 µM: 100%
PIK3CA(E545K)
  remaining binding at 10 µM: 55%
MST1R
  remaining binding at 10 µM: 94%
TSSK1B
  remaining binding at 10 µM: 95%
JNK1
  remaining binding at 10 µM: 97%
MAP3K3
  remaining binding at 10 µM: 98%
